Reference: patent US9434743B2, “Indazole derivatives” (TAKEDA PHARMACEUTICAL COMPANY LIMITED, priority 2012, dated 2016)

Key:
[1] = cited from earlier work
angiogenesis = conditions: cited from earlier work
human MetAP2 enzyme [2] = biological target: T1, human MetAP2 enzyme (Homo sapiens, UniProt P50579); experiment: MetAP2 enzyme assay, enzyme complexed with cobalt ions; conditions: MetAP2 Co pIC50, MetAP2 enzyme complexed with cobalt ions; Met-AMC substrate at Km
human MetAP2 enzyme [3] = biological target: T1, human MetAP2 enzyme; experiment: MetAP2 enzyme assay, enzyme complexed with manganese ions; conditions: MetAP2 Mn pIC50, MetAP2 enzyme complexed with manganese ions; Met-AMC substrate at Km

T1 sequence (P50579 whole entry): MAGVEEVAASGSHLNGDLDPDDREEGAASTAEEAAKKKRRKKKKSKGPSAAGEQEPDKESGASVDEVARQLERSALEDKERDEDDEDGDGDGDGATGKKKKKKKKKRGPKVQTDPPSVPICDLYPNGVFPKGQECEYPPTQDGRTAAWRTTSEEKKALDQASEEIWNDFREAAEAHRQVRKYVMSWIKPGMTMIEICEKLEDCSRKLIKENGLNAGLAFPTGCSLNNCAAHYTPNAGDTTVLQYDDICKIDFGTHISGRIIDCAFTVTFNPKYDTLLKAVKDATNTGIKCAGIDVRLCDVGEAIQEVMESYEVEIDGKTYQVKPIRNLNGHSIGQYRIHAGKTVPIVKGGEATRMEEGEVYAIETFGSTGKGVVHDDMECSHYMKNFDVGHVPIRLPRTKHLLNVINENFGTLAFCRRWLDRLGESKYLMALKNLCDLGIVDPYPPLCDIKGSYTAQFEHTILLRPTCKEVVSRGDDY

Row | Structure (SMILES) | effect on diet-induced obesity ([1]; diet-induced obesity in mice) | inhibition of angiogenesis (angiogenesis) | food intake, body weight, fat mass, size of adipocytes ([1]; genetically and diet-induced obese mice) | IC50 (human MetAP2 enzyme [2]) | IC50 (human MetAP2 enzyme [3])
1 | CO[C@@H]1[C@H](OC(=O)/C=C/C=C/C=C/C=C/C(=O)O)CC[C@]2(CO2)[C@H]1[C@@]1(C)O[C@@H]1CC=C(C)C [fumagillin] | impair diet-induced obesity | inhibit angiogenesis |  |  | 
2 | CO[C@@H]1[C@H](OC(=O)/C=C/c2ccc(OCCN(C)C)cc2)CC[C@]2(CO2)[C@H]1[C@@]1(C)O[C@@H]1CC=C(C)C [CKD-732] |  |  | decrease food intake, body weight, fat mass, and the size of adipocytes |  | 
3 | C[C@@H](O)CNC(=O)c1cc(-c2cc(C(F)(F)F)cc3[nH]ncc23)c(=O)n(C)c1 [Example 358, (R)—N-(2-hydroxypropyl)-1-methyl-6-oxo-5-(6-(trifluoromethyl)-1H-indazol-4-yl)-1,6-dihydropyridine-3-carboxamide] |  |  |  | 501 nM | 10 nM
4 | FC(F)(F)c1cc(-c2cnc(-n3ccnc3)nc2)c2cn[nH]c2c1 [Example 217, 4-(2-(1H-imidazol-1-yl)pyrimidin-5-yl)-6-(trifluoromethyl)-1H-indazole] |  |  |  | 158 nM | 10 nM
5 | O=c1[nH]c2ccc(-c3cc(C(F)(F)F)cc4[nH]ncc34)cc2[nH]1 [Example 237, 5-(6-(trifluoromethyl)-1H-indazol-4-yl)-1H-benzo[d]imidazol-2(3H)-one] |  |  |  | 12.6 nM | 2.51 nM
6 | Cc1nn(CC(N)=O)c(C)c1-c1cc(C(F)(F)F)cc2[nH]ncc12 [Example 173, 2-(3,5-dimethyl-4-(6-(trifluoromethyl)-1H-indazol-4-yl)-1H-pyrazol-1-yl)acetamide] |  |  |  | 31.6 nM | 15.8 nM
7 | Cc1nc(N2CCOCC2)ccc1-c1cc(C(F)(F)F)cc2[nH]ncc12 [Example 399, 4-(6-methyl-5-(6-(trifluoromethyl)-1H-indazol-4-yl)pyridin-2-yl)morpholine] |  |  |  | 25.1 nM | 7.94 nM
8 | FC(F)(F)c1cc(-c2ccc3ccncc3c2)c2cn[nH]c2c1 [Example 26, 7-(6-(trifluoromethyl)-1H-indazol-4-yl)isoquinoline] |  |  |  | 63.1 nM | 12.6 nM
9 | Cc1ncc(-c2cc(C(F)(F)F)cc3[nH]ncc23)c2cc[nH]c12 [Example 292, 4-(7-methyl-1H-pyrrolo[2,3-c]pyridin-4-yl)-6-(trifluoromethyl)-1H-indazole] |  |  |  | 39.8 nM | 6.31 nM
10 | CN(C)CCn1c(=O)c(-c2cc(C(F)(F)F)cc3[nH]ncc23)cn(C)c1=O [Example 319, 3-(2-(dimethylamino)ethyl)-1-methyl-5-(6-(trifluoromethyl)-1H-indazol-4-yl)pyrimidine-2,4(1H,3H)-dione] |  |  |  | 1260 nM | 39.8 nM
11 | CCNC(=O)Cn1c(=O)c(-c2cc(C(F)(F)F)cc3[nH]ncc23)cn(C)c1=O [Example 302, N-ethyl-2-(3-methyl-2,6-dioxo-5-(6-(trifluoromethyl)-1H-indazol-4-yl)-2,3-dihydropyrimidin-1(6H)-yl)acetamide] |  |  |  | 501 nM | 6.31 nM
12 | CCN1C(=O)C(=O)c2cc(C)cc(-c3cc(C(F)(F)F)cc4[nH]ncc34)c21 [Example 199, 1-ethyl-5-methyl-7-(6-(trifluoromethyl)-1H-indazol-4-yl)indoline-2,3-dione] |  |  |  | 501 nM | 158 nM
13 | FC(F)(F)c1cc(-c2cccc3[nH]ccc23)c2cn[nH]c2c1 [Example 81, 4-(1H-indol-4-yl)-6-(trifluoromethyl)-1H-indazole] |  |  |  | 39.8 nM | 15.8 nM
14 | COCCNc1ncc(-c2cc(C(F)(F)F)cc3[nH]ncc23)cn1 [Example 293, N-(2-methoxyethyl)-5-(6-(trifluoromethyl)-1H-indazol-4-yl)pyrimidin-2-amine] |  |  |  | 100 nM | 6.31 nM
15 | Cc1nn(CCC#N)c(C)c1-c1cc(C(F)(F)F)cc2[nH]ncc12 [Example 174, 3-(3,5-dimethyl-4-(6-(trifluoromethyl)-1H-indazol-4-yl)-1H-pyrazol-1-yl)propanenitrile] |  |  |  | 63.1 nM | 12.6 nM
16 | Cc1nn(CCN)c(C)c1-c1cc(C(F)(F)F)cc2[nH]ncc12 [Example 176, 2-(3,5-dimethyl-4-(6-(trifluoromethyl)-1H-indazol-4-yl)-1H-pyrazol-1-yl)ethanamine] |  |  |  | 39.8 nM | 12.6 nM
17 | CN1CCN(C(=O)c2ccc(-c3cc(C(F)(F)F)cc4[nH]ncc34)cn2)CC1 [Example 271, (4-methylpiperazin-1-yl)(5-(6-(trifluoromethyl)-1H-indazol-4-yl)pyridin-2-yl)methanone] |  |  |  | 316 nM | 12.6 nM
18 | COc1ncc(-c2cc(C(F)(F)F)cc3[nH]ncc23)c2cc[nH]c12 [Example 291, 4-(7-methoxy-1H-pyrrolo[2,3-c]pyridin-4-yl)-6-(trifluoromethyl)-1H-indazole] |  |  |  | 63.1 nM | 10 nM
